Test results taken from US20100016209A1, “Methods of Reducing Side Effects in Cancer Therapy” (priority 2005, published 2010).

Key:
[1] = system: white blood cells of kidney cancer patient; assay: Clinical case (B): chemotherapy with a platinum compound and MEK, white blood cells analyzed by cell sorter; format: in vivo, human; conditions: A person; for Total T (CD3+), Percent: kidney cancer, normal 59.4-84.6; for Total T (CD3+), Percent / T Helper (CD3+, CD4+), Cell Number/μl / T Suppressor (CD3+, CD8+), Cell Number/μl / Total B (CD19+), Cell Number/μl / Total NK (CD16+/CD56+), Cell Number/μl / Total T (CD3+), Cell Number/μl / Ratio T Helper Cells/ CD3, CD4/CD3, CD8 / Total NK (CD16+/CD56+), Percent / Total B (CD19+), Percent / T Suppressor (CD3+, CD8+), Percent / T Helper (CD3+, CD4+), Percent / Lymphocytes T + B + NK, Percent: platinum compound + MEK; for Ratio T Helper Cells/ CD3, CD4/CD3, CD8: normal 0.9-3.6; for Total NK (CD16+/CD56+), Percent: normal 5.6-40.9; for Total B (CD19+), Percent: normal 6.4-22.6; for T Suppressor (CD3+, CD8+), Percent: normal 11.1-38.3; for T Helper (CD3+, CD4+), Percent: normal 28.5-60.5; for Lymphocytes T + B + NK, Percent: normal 95.0-105.0
Protocol: (B) A patient was diagnosed with a kidney cancer and was treated with chemotherapy with a platinum compound and MEK for about two months (July and August 2005). […] a person's white blood cells after analyzed by the cell sorter are presented as follows: […]

patients' immune cells = assay: Clinical (C): MEK therapy in a group of 19 cancer patients, analysis of patients' immune cells (FACS Calibur); format: in vivo, human; conditions: for Total NK (CD16+CD56) Natural killer cells, Cells/μl / Total T Cells, Cells/μl / CD4/CD3(CD8) / Total NK (CD16+CD56) Natural killer cells, in percent of total / Total T Cells, in percent of total / Total Lymphocytes (T+B+NK), in percent of total: average of 19 patients; for Total NK (CD16+CD56) Natural killer cells, Cells/μl / Total T Cells, in percent of total: before MEK 61; for Total T Cells, Cells/μl: before MEK 367; for CD4/CD3(CD8): normal 0.9-3.6, before MEK 0.61; for Total NK (CD16+CD56) Natural killer cells, in percent of total: normal 5.6-30.9, before MEK 16; for Total T Cells, in percent of total: normal range 59.5-84.6; for Total Lymphocytes (T+B+NK), in percent of total: normal range 95.0-105.0, before MEK 87
Protocol: (C) Therapy in group of patients: (1) Total patient number: 19 (2) Cancer category: colon cancer—8; ovary cancer—5; lung cancer—4; salivary gland cancer—1; stomach cancer—1. 12 patients were given MEK 3 weeks after chemotherapy; the other 7 patients were not treated with chemotherapy. (3) Schedule of MEK administration: First week—10˜30 μg/kg, daily IV (total 7 administrations per week); Second week—20˜40 μg/kg, ever other day IV (total 3 administrations per week); Third week—30˜50 μg/kg, once every three days, IV (total 2 administrations per week). (4) Thereafter, one administration each month, 100˜130 μg/kg for 6 months. (5) Observation Indicator: analysis of patients' immune cells. (6) Equipment used: Cytometer—FACS Calibur; Software—Simul Set V3.1. (7) Results (in average values):
In the above data, “after MEK” refers to after the end of MEK treatment.

[2] = system: patient with metastasized cancer of the "small saliva gland"
Protocol: (A) A patient of was a physician in the radiation department. They were diagnosed to have cancer of the “small saliva gland” in 1996. After radiation therapy, the tumor was removed by surgery. In 2001 it was discovered that the tumor had metastasized to their left lung and they went through a second surgery in the lung. In December of 2004, the metastasis extended into the chest, diaphragm and bone and multiple sites in the lung. They were treated with regional radiation and “immuno-therapy”. Starting in the middle of December, they were given MEK intravenously (IV) at a dose of 30 μg/kg bodyweight three times per week for one month. In the next month, they were given one administration of MEK each week at 40 μg/kg. Thereafter, one injection was done for each month at 120 μg/kg for the next 5 months.

## Methionine enkephalin [MEK]
[1]; Aug 12
  Total T (CD3+), Percent: 74%
  T Helper (CD3+, CD4+), Cell Number/μl: 447 Cell Number/μl
  T Suppressor (CD3+, CD8+), Cell Number/μl: 931 Cell Number/μl
  Total B (CD19+), Cell Number/μl: 74 Cell Number/μl
  Total NK (CD16+/CD56+), Cell Number/μl: 447 Cell Number/μl
  Total T (CD3+), Cell Number/μl: 1368 Cell Number/μl
  Ratio T Helper Cells/ CD3, CD4/CD3, CD8: 0.48
  Total NK (CD16+/CD56+), Percent: 24%
  Total B (CD19+), Percent: 4%
  T Suppressor (CD3+, CD8+), Percent: 50%
  T Helper (CD3+, CD4+), Percent: 24%
  Lymphocytes T + B + NK, Percent: 102%
[1]; Jul 14
  Total T (CD3+), Percent: 70%
  T Helper (CD3+, CD4+), Cell Number/μl: 569 Cell Number/μl
  T Suppressor (CD3+, CD8+), Cell Number/μl: 1274 Cell Number/μl
  Total B (CD19+), Cell Number/μl: 54 Cell Number/μl
  Total NK (CD16+/CD56+), Cell Number/μl: 759 Cell Number/μl
  Total T (CD3+), Cell Number/μl: 1897 Cell Number/μl
  Ratio T Helper Cells/ CD3, CD4/CD3, CD8: 0.45
  Total NK (CD16+/CD56+), Percent: 28%
  Total B (CD19+), Percent: 2%
  T Suppressor (CD3+, CD8+), Percent: 47%
  T Helper (CD3+, CD4+), Percent: 21%
  Lymphocytes T + B + NK, Percent: 100%
[1]; platinum compound and MEK for about two months
  Numbers of T cell sub-types: did not decrease but increased instead
patients' immune cells; MEK as supplemental agent with chemo and/or radiation therapies
  side effects among the patients treated: helped to eliminate or reduce the extent of many side effects
patients' immune cells; 1 month after MEK
  Total NK (CD16+CD56) Natural killer cells, Cells/μl: 177 Cells/μl
  Total T Cells, Cells/μl: 655 Cells/μl
  CD4/CD3(CD8): 0
  Total NK (CD16+CD56) Natural killer cells, in percent of total: 22% of total
  Total T Cells, in percent of total: 60% of total
  Total Lymphocytes (T+B+NK), in percent of total: 102% of total
patients' immune cells; 2 months after MEK
  Total NK (CD16+CD56) Natural killer cells, Cells/μl: 189 Cells/μl
  Total T Cells, Cells/μl: 587 Cells/μl
  CD4/CD3(CD8): 1.62
  Total NK (CD16+CD56) Natural killer cells, in percent of total: 21% of total
  Total T Cells, in percent of total: 66% of total
  Total Lymphocytes (T+B+NK), in percent of total: 100% of total
patients' immune cells; 3 months after MEK
  Total NK (CD16+CD56) Natural killer cells, Cells/μl: 306 Cells/μl
  Total T Cells, Cells/μl: 539 Cells/μl
  CD4/CD3(CD8): 1.51
  Total NK (CD16+CD56) Natural killer cells, in percent of total: 29% of total
  Total T Cells, in percent of total: 67% of total
  Total Lymphocytes (T+B+NK), in percent of total: 104% of total
patients' immune cells; 4 months after MEK
  Total NK (CD16+CD56) Natural killer cells, Cells/μl: 349 Cells/μl
  Total T Cells, Cells/μl: 694 Cells/μl
  CD4/CD3(CD8): 1.53
  Total NK (CD16+CD56) Natural killer cells, in percent of total: 26% of total
  Total T Cells, in percent of total: 79% of total
  Total Lymphocytes (T+B+NK), in percent of total: 103% of total
patients' immune cells; 5 months after MEK
  Total NK (CD16+CD56) Natural killer cells, Cells/μl: 368 Cells/μl
  Total T Cells, Cells/μl: 637 Cells/μl
  CD4/CD3(CD8): 1.80
  Total NK (CD16+CD56) Natural killer cells, in percent of total: 25% of total
  Total T Cells, in percent of total: 73% of total
  Total Lymphocytes (T+B+NK), in percent of total: 102% of total
patients' immune cells; 6 months after MEK
  Total NK (CD16+CD56) Natural killer cells, Cells/μl: 359 Cells/μl
  Total T Cells, Cells/μl: 568 Cells/μl
  CD4/CD3(CD8): 1.61
  Total NK (CD16+CD56) Natural killer cells, in percent of total: 27% of total
  Total T Cells, in percent of total: 80% of total
  Total Lymphocytes (T+B+NK), in percent of total: 103% of total
patients' immune cells; cancer patients, MEK in conjunction with chemo and/or radiation therapies, after one month of MEK administration
  CD4/CD3(CD8), NK (CD16+CD56), and total T cells: either were maintained normally or increased
[2]; CT and MRI examination
  progress of the tumor: slowed and partially disappeared
[2]; after the therapy
  appetite and sleep: improved
  blood pressure, pulse and liver and stomach functions: normal
[2]; during the influenza epidemic, hospital ward
  influenza infection: not infected
[2]; during therapy with radiation, chemo, and MEK
  side effects in the GI, respiratory, skin, and peripheral circulation systems: no side effects
[2]; during therapy with radiation, chemo, and MEK, MEK IV 30-120 μg/kg
  white blood cell counts and lymphocytes: decreased to some extent
[2]; monitored monthly
  CD3/CD4 sub-group of T lymphocytes: increased
  CD3/CD8 and total CD3 subgroups: decreased
  total numbers of NK cells: increased
